Test results from PubChem BioAssay AID1963849 (Molecular Pharmacology Branch, DTP, NCI, 2024).

Test system: 299254-011-R-J1-PDC complex spheroid viability
Assay: Anticancer human tumor 299254-011-R-J1-PDC patient-derived melanoma cell line growth inhibition [POLQ]
Conditions: for IC50: curve of first compound; for viability, T/C: stronger effect = lower value
Outline: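 Growth inhibition in 3D: complex spheroids (tumor PDC, HUVEC, MSC) treated with POLQ inhibitor combinations; where Cmax unknown, highest tested concentration 10 microM, except SN-38 at 1 microM.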

[1] = second compound 0.0316 µM, first compound 0.0316 µM
[2] = second compound 0.0316 µM, first compound 0.1 µM
[3] = second compound 0.0316 µM, first compound 0.316 µM
[4] = second compound 0.0316 µM, first compound 1 µM
[5] = second compound 0.0316 µM, first compound 3.16 µM
[6] = second compound 0.0316 µM, first compound 10 µM
[7] = second compound 0.1 µM, first compound 0.0316 µM
[8] = second compound 0.1 µM, first compound 0.1 µM
[9] = second compound 0.1 µM, first compound 0.316 µM
[10] = second compound 0.1 µM, first compound 1 µM
[11] = second compound 0.1 µM, first compound 3.16 µM
[12] = second compound 0.1 µM, first compound 10 µM
[13] = second compound 0.316 µM, first compound 0.0316 µM
[14] = second compound 0.316 µM, first compound 0.1 µM
[15] = second compound 0.316 µM, first compound 0.316 µM
[16] = second compound 0.316 µM, first compound 1 µM
[17] = second compound 0.316 µM, first compound 3.16 µM
[18] = second compound 0.316 µM, first compound 10 µM
[19] = second compound 1 µM, first compound 0.0316 µM
[20] = second compound 1 µM, first compound 0.1 µM
[21] = second compound 1 µM, first compound 0.316 µM
[22] = second compound 1 µM, first compound 1 µM
[23] = second compound 1 µM, first compound 3.16 µM
[24] = second compound 1 µM, first compound 10 µM
[25] = second compound 3.16 µM, first compound 0.0316 µM
[26] = second compound 3.16 µM, first compound 0.1 µM
[27] = second compound 3.16 µM, first compound 0.316 µM
[28] = second compound 3.16 µM, first compound 1 µM
[29] = second compound 3.16 µM, first compound 3.16 µM
[30] = second compound 3.16 µM, first compound 10 µM
[31] = second compound 10 µM, first compound 0.0316 µM
[32] = second compound 10 µM, first compound 0.1 µM
[33] = second compound 10 µM, first compound 0.316 µM
[34] = second compound 10 µM, first compound 1 µM
[35] = second compound 10 µM, first compound 3.16 µM
[36] = second compound 10 µM, first compound 10 µM
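Further: spheroids exposed to drugs for one week before measurement.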
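Wherever viability, T/C is given: percent viability relative to DMSO vehicle control taken as 100%.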

O=c1[nH]cc(F)c(=O)[nH]1 + COC1C(OC(N)=O)C(O)C(Oc2ccc3c(O)c(NC(=O)c4ccc(O)c(CC=C(C)C)c4)c(=O)oc3c2C)OC1(C)C was tested, and the IC50 (second compound 0.0316 µM) was > 10 µM, the IC50 (second compound 0.1 µM) was > 10 µM and the IC50 (second compound 0.316 µM) was > 10 µM. For the same compound, the IC50 (second compound 1 µM) was > 10 µM, the IC50 (second compound 3.16 µM) was > 10 µM and the IC50 (second compound 10 µM) was > 10 µM. For the same compound, the viability, T/C [1] was 109%, the viability, T/C [2] was 108% and the viability, T/C [3] was 122%. The viability, T/C [4] was 99.6%, the viability, T/C [5] was 94.3% and the viability, T/C [6] was 66.8%. It also gave a viability, T/C [7] of 110%, a viability, T/C [8] of 110% and a viability, T/C [9] of 114%. For the same compound, the viability, T/C [10] was 113%, the viability, T/C [11] was 93.7% and the viability, T/C [12] was 76.3%. The viability, T/C [13] was 109%, the viability, T/C [14] was 102% and the viability, T/C [15] was 116%. For the same compound, the viability, T/C [16] was 101%, the viability, T/C [17] was 91.8% and the viability, T/C [18] was 79.1%. It also gave a viability, T/C [19] of 111%, a viability, T/C [20] of 115% and a viability, T/C [21] of 92.8%. The viability, T/C [22] was 110%, the viability, T/C [23] was 101% and the viability, T/C [24] was 87.7%. For the same compound, the viability, T/C [25] was 110%, the viability, T/C [26] was 117% and the viability, T/C [27] was 128%. The viability, T/C [28] was 112%, the viability, T/C [29] was 91.3% and the viability, T/C [30] was 68.8%. The viability, T/C [31] was 130%, the viability, T/C [32] was 131% and the viability, T/C [33] was 96.2%. For the same compound, the viability, T/C [34] was 109%, the viability, T/C [35] was 89.9% and the viability, T/C [36] was 78.3%.

Compound COc1cccc(OCCCN)c1-c1cc(Nc2cnc(C#N)cn2)n[nH]1 + COC1C(OC(N)=O)C(O)C(Oc2ccc3c(O)c(NC(=O)c4ccc(O)c(CC=C(C)C)c4)c(=O)oc3c2C)OC1(C)C has an IC50 (second compound 0.0316 µM) of 0.0651 µM, an IC50 (second compound 0.1 µM) of 0.119 µM and an IC50 (second compound 0.316 µM) of 0.111 µM. The IC50 (second compound 1 µM) was 0.206 µM, the IC50 (second compound 3.16 µM) was 0.0845 µM and the IC50 (second compound 10 µM) was 0.126 µM. The viability, T/C (second compound 0.0316 µM, first compound 0.00316 µM) was 99.5%, the viability, T/C (second compound 0.0316 µM, first compound 0.01 µM) was 94.9% and the viability, T/C [1] was 58.7%. It also gave a viability, T/C [2] of 49.6%, a viability, T/C [3] of 41.6% and a viability, T/C [4] of 38.1%. The viability, T/C (second compound 0.1 µM, first compound 0.00316 µM) was 94.2%, the viability, T/C (second compound 0.1 µM, first compound 0.01 µM) was 98.6% and the viability, T/C [7] was 72%. It also gave a viability, T/C [8] of 53.9%, a viability, T/C [9] of 41.1% and a viability, T/C [10] of 38%. For the same compound, the viability, T/C (second compound 0.316 µM, first compound 0.00316 µM) was 105%, the viability, T/C (second compound 0.316 µM, first compound 0.01 µM) was 102% and the viability, T/C [13] was 74.5%. It also gave a viability, T/C [14] of 52.4%, a viability, T/C [15] of 42.1% and a viability, T/C [16] of 39.6%. It also gave a viability, T/C (second compound 1 µM, first compound 0.00316 µM) of 114%, a viability, T/C (second compound 1 µM, first compound 0.01 µM) of 89.2% and a viability, T/C [19] of 74.2%. For the same compound, the viability, T/C [20] was 56.8%, the viability, T/C [21] was 43.8% and the viability, T/C [22] was 39.9%. It also gave a viability, T/C (second compound 3.16 µM, first compound 0.00316 µM) of 99.5%, a viability, T/C (second compound 3.16 µM, first compound 0.01 µM) of 105% and a viability, T/C [25] of 65.7%. The viability, T/C [26] was 55.1%, the viability, T/C [27] was 38.3% and the viability, T/C [28] was 48.6%. It also gave a viability, T/C (second compound 10 µM, first compound 0.00316 µM) of 105%, a viability, T/C (second compound 10 µM, first compound 0.01 µM) of 104% and a viability, T/C [31] of 67.7%. For the same compound, the viability, T/C [32] was 56.9%, the viability, T/C [33] was 49% and the viability, T/C [34] was 40%.

With COc1cc2cc(C(=O)CCC(=O)O)sc2cc1OC + COC1C(OC(N)=O)C(O)C(Oc2ccc3c(O)c(NC(=O)c4ccc(O)c(CC=C(C)C)c4)c(=O)oc3c2C)OC1(C)C the IC50 (second compound 0.0316 µM) was > 10 µM, the IC50 (second compound 0.1 µM) was > 10 µM and the IC50 (second compound 0.316 µM) was > 10 µM. The IC50 (second compound 1 µM) was > 10 µM, the IC50 (second compound 3.16 µM) was > 10 µM and the IC50 (second compound 10 µM) was > 10 µM. It also gave a viability, T/C [1] of 112%, a viability, T/C [2] of 98.3% and a viability, T/C [3] of 106%. The viability, T/C [4] was 100%, the viability, T/C [5] was 113% and the viability, T/C [6] was 102%. For the same compound, the viability, T/C [7] was 95.8%, the viability, T/C [8] was 109% and the viability, T/C [9] was 101%. It also gave a viability, T/C [10] of 116%, a viability, T/C [11] of 99.2% and a viability, T/C [12] of 114%. For the same compound, the viability, T/C [13] was 112%, the viability, T/C [14] was 93.1% and the viability, T/C [15] was 104%. The viability, T/C [16] was 110%, the viability, T/C [17] was 113% and the viability, T/C [18] was 109%. For the same compound, the viability, T/C [19] was 91.8%, the viability, T/C [20] was 104% and the viability, T/C [21] was 104%. The viability, T/C [22] was 109%, the viability, T/C [23] was 104% and the viability, T/C [24] was 125%. For the same compound, the viability, T/C [25] was 108%, the viability, T/C [26] was 96% and the viability, T/C [27] was 94%. It also gave a viability, T/C [28] of 110%, a viability, T/C [29] of 112% and a viability, T/C [30] of 108%. It also gave a viability, T/C [31] of 103%, a viability, T/C [32] of 104% and a viability, T/C [33] of 95%. It also gave a viability, T/C [34] of 107%, a viability, T/C [35] of 110% and a viability, T/C [36] of 97.5%.

C=CC(=O)N1CCN(c2nc(=O)n(-c3c(C)ccnc3C(C)C)c3nc(-c4c(O)cccc4F)c(F)cc23)C(C)C1 (stereo not drawn) + Nc1ccc(C#CCN(C(=O)Cc2ncc(C(F)(F)F)cc2C(F)(F)F)c2ccc(F)cc2)nn1 was tested, and the IC50 (second compound 0.0316 µM) was > 10 µM, the IC50 (second compound 0.1 µM) was > 10 µM and the IC50 (second compound 0.316 µM) was > 10 µM. The IC50 (second compound 1 µM) was > 10 µM, the IC50 (second compound 3.16 µM) was > 10 µM and the IC50 (second compound 10 µM) was > 10 µM. For the same compound, the viability, T/C [1] was 77.4%, the viability, T/C [2] was 83.6% and the viability, T/C [3] was 80%. It also gave a viability, T/C [4] of 84.9%, a viability, T/C [5] of 88.7% and a viability, T/C [6] of 70.2%. For the same compound, the viability, T/C [7] was 86.9%, the viability, T/C [8] was 75.2% and the viability, T/C [9] was 80.7%. It also gave a viability, T/C [10] of 86.2%, a viability, T/C [11] of 81.7% and a viability, T/C [12] of 76.9%. The viability, T/C [13] was 93.5%, the viability, T/C [14] was 76.9% and the viability, T/C [15] was 66.2%. The viability, T/C [16] was 82.2%, the viability, T/C [17] was 77.9% and the viability, T/C [18] was 78.4%. For the same compound, the viability, T/C [19] was 96.2%, the viability, T/C [20] was 78.1% and the viability, T/C [21] was 81.6%. It also gave a viability, T/C [22] of 79.1%, a viability, T/C [23] of 92.7% and a viability, T/C [24] of 79%. The viability, T/C [25] was 83.1%, the viability, T/C [26] was 80% and the viability, T/C [27] was 74.6%. The viability, T/C [28] was 82.2%, the viability, T/C [29] was 85.9% and the viability, T/C [30] was 64.5%. It also gave a viability, T/C [31] of 90.3%, a viability, T/C [32] of 80.8% and a viability, T/C [33] of 73.5%. It also gave a viability, T/C [34] of 79.1%, a viability, T/C [35] of 79.7% and a viability, T/C [36] of 77.4%.
